Data published in patent US20240350522A1, “HYGROMYCIN A FOR TREATMENT OF DISEASES AND INFECTIONS” (FLIGHTPATH BIOSCIENCES, INC., priority 2021, published 2024).
Several values for one entry are separate records, joined by “and”; a condition that tells them apart may be missing. Equal entries are not always repeated. Where two headings read alike, the source gives them in different places.

What was measured:
Format in all cases: cell-based
[1] = tested on: Parvimonas micra (ATCC 33270); test: MBC of Hyg A against P. micra; settings: for MBC: ATCC33270
[2] = tested on: Treponema pallidum pallidum Chicago strain; test: T. pallidum susceptibility assay, co-culture with Sf1Ep cells, tp0574 (T47) qPCR after 7 days; settings: for Mean T47 copies/μL, Avg. / Mean T47 copies/μL, experimental values: 7 days; for Mean T47 copies/μL, Avg.: average of 8 replicates; for Mean T47 copies/μL, experimental values: replicate wells
[3] = tested on: Streptococcus salivarius ATCC13419; test: MBC of Hyg A against S. salivarius
F. nucleatum nucleatum = test: Kirby-Bauer diffusion assay; settings: Fusobacterium nucleatum, mean (SEM), read-out: size of zone inhibition (mm); for zone of inhibition at 5 µg/disc: Hyg A 5 μg per disc; for zone of inhibition at 10 µg/disc: Hyg A 10 μg per disc; for zone of inhibition at 20 µg/disc: Hyg A 20 μg per disc; for zone of inhibition at 40 µg/disc: Hyg A 40 μg per disc
Experimental: (§1) Three representatives of 6 subspecies of Fusobacterium nucleatum (F. nucleatum) for a total of 18 strains were tested in the experiment. The sub species and strains are described in Table 2.
(§2) All strains were verified by 16S V3/V6 sequence analysis prior to use. The methods described herein were performed in an anaerobic chamber at 37° C. All media and plates were degassed prior to use.
(§3) Hygromycin A (Hyg A) discs were prepared by solubilizing Hyg A in distilled water and sterile filtered. Clindamycin was used as a positive control. Defined amounts of hygromycin A (40, 20, 10 or 5 micrograms), clindamycin (2 micrograms) or sterile distilled water were absorbed onto Kirby-Bauer discs in a biosafety cabinet.
(§4) An overnight culture was grown in Wilkins-Chalgren (WC) broth and back-diluted 1:10 in fresh broth. When an OD 600 reading reached 0.5, 300 μL of the log phase culture was plated onto WC agar plates. The plates were sectioned into quadrants and a Kirby-Bauer (KB) disc impregnated with a defined amount of hygromycin A was placed in each quadrant. Plates were prepared thus in triplicate and the four amounts of hygromycin A were 40, 20 10 and 5 micrograms. The same volume of culture was spread on fourth plate sectioned into six sections for three positive and three negative controls. KB discs with water served as negative controls and KB discs impregnated with 2 micrograms of clindamycin served as positive controls. […] Table 3, Table 4, Table 5, Table 6, Table 7, Table 8 show the mean size of zone inhibitions for each of the subspecies tested using increasing concentrations of hygromycin A where the standard error of mean is represented in parenthesis.
(§5) The amount of hygromycin A was plotted against the size of the zone of inhibition for each strain tested.

F. nucleatum fusiforme = test: Kirby-Bauer diffusion assay; settings: Fusobacterium nucleatum, mean (SEM), read-out: size of zone inhibition (mm); for zone of inhibition at 5 µg/disc: Hyg A 5 μg per disc; for zone of inhibition at 10 µg/disc: Hyg A 10 μg per disc; for zone of inhibition at 20 µg/disc: Hyg A 20 μg per disc; for zone of inhibition at 20 µg/disc / zone of inhibition at 40 µg/disc: 42 mm = assigned maximum; for zone of inhibition at 40 µg/disc: Hyg A 40 μg per disc
Experimental: as §1, §2, §3, §4, §5

[4] = strain 25586 (second column so headed)
[5] = strain 25586, 42 mm = assigned maximum

## CC(=O)[C@H]1O[C@@H](Oc2ccc(/C=C(\C)C(=O)N[C@@H]3[C@H](O)[C@@H](O)[C@H]4OCO[C@H]4[C@@H]3O)cc2O)[C@@H](O)[C@@H]1O [Hyg A, Hygromycin A]
[1]; Parvimonas micra ATCC 33270, read-out: MBC
  MBC: > 10 µg/mL
[1]; P. micra
  type of effect (bactericidal/bacteriostatic): bacteriostatic
[1]; P. micra 33270
  MIC:MBC ratio: >0.2
[1]; Parvimonas micra, P. micra 33270, experiment 1, read-out: MBC (μg/ml) 1
  MBC: > 10 µg/mL
[1]; Parvimonas micra, P. micra 33270, experiment 2, read-out: MBC (μg/ml) 2
  MBC: > 10 µg/mL
[2]; Chicago strain, ANOVA p<0.05
  lowest concentration effective against growth (no significant difference to higher concentrations): 0.12 µg/mL
[2]; Hyg A 0.03 μg/ml
  Mean T47 copies/μL, Avg.: 7184 copies/μL
  Mean T47 copies/μL, experimental values: 2531 copies/μL and 7304 copies/μL and 8369 copies/μL and 7552 copies/μL and 6189 copies/μL and 9263 copies/μL and 8429 copies/μL and 7834 copies/μL
[2]; Hyg A 0.06 μg/ml
  Mean T47 copies/μL, Avg.: 1814 copies/μL
  Mean T47 copies/μL, experimental values: 1336 copies/μL and 1882 copies/μL and 1716 copies/μL and 2225 copies/μL and 1815 copies/μL and 2044 copies/μL and 2022 copies/μL and 1476 copies/μL
[2]; Hyg A 0.12 μg/ml
  Mean T47 copies/μL, Avg.: 674 copies/μL
  Mean T47 copies/μL, experimental values: 449 copies/μL and 775 copies/μL and 689 copies/μL and 776 copies/μL and 788 copies/μL and 670 copies/μL and 704 copies/μL and 545 copies/μL
[2]; Hyg A 0.24 μg/ml
  Mean T47 copies/μL, Avg.: 576 copies/μL
  Mean T47 copies/μL, experimental values: 360 copies/μL and 447 copies/μL and 513 copies/μL and 890 copies/μL and 775 copies/μL and 636 copies/μL and 565 copies/μL and 424 copies/μL
[2]; Hyg A 0.48 μg/ml
  Mean T47 copies/μL, Avg.: 457 copies/μL
  Mean T47 copies/μL, experimental values: 341 copies/μL and 475 copies/μL and 462 copies/μL and 614 copies/μL and 548 copies/μL and 509 copies/μL and 425 copies/μL and 280 copies/μL
[2]; Hyg A 0.96 μg/ml
  Mean T47 copies/μL, Avg.: 397 copies/μL
  Mean T47 copies/μL, experimental values: 271 copies/μL and 393 copies/μL and 520 copies/μL and 528 copies/μL and 402 copies/μL and 418 copies/μL and 372 copies/μL and 273 copies/μL
[2]; Hyg A 1.92 μg/ml
  Mean T47 copies/μL, Avg.: 451 copies/μL
  Mean T47 copies/μL, experimental values: 301 copies/μL and 422 copies/μL and 453 copies/μL and 556 copies/μL and 585 copies/μL and 546 copies/μL and 464 copies/μL and 279 copies/μL
[2]; Hyg A 3.84 μg/ml
  Mean T47 copies/μL, Avg.: 493 copies/μL
  Mean T47 copies/μL, experimental values: 324 copies/μL and 470 copies/μL and 612 copies/μL and 487 copies/μL and 485 copies/μL and 532 copies/μL and 618 copies/μL and 412 copies/μL
[3]; S. salivarius 13419
  MIC:MBC ratio: 10
[3]; Streptococcus salivarius ATCC13419, read-out: MBC
  MBC: 10 µg/mL
[3]; Streptococcus salivarius, ATCC13419, S. salivarius 13419, experiment 1, read-out: MBC (μg/ml) 1
  MBC: 10 µg/mL
[3]; Streptococcus salivarius, ATCC13419, S. salivarius 13419, experiment 2, read-out: MBC (μg/ml) 2
  MBC: 10 µg/mL
F. nucleatum nucleatum; strain 203L34
  zone of inhibition at 5 µg/disc: 24 mm
  zone of inhibition at 10 µg/disc: 30 mm
  zone of inhibition at 20 µg/disc: 39.7 mm
F. nucleatum nucleatum; strain 203L34, 42 mm = assigned maximum
  zone of inhibition at 40 µg/disc: 42 mm
F. nucleatum nucleatum; strain 25586 (first column)
  zone of inhibition at 5 µg/disc: 16 mm
  zone of inhibition at 10 µg/disc: 20 mm
F. nucleatum nucleatum; [4]
  zone of inhibition at 5 µg/disc: 25.7 mm
  zone of inhibition at 10 µg/disc: 30 mm
F. nucleatum nucleatum; [5]
  zone of inhibition at 20 µg/disc: 42 mm
  zone of inhibition at 40 µg/disc: 42 mm
F. nucleatum nucleatum; strain 25586
  zone of inhibition at 20 µg/disc: 26 mm
  zone of inhibition at 40 µg/disc: 30 mm
F. nucleatum fusiforme; strain 203C15
  zone of inhibition at 5 µg/disc: 18 mm
  zone of inhibition at 10 µg/disc: 24 mm
  zone of inhibition at 20 µg/disc: 42 mm
  zone of inhibition at 40 µg/disc: 42 mm
F. nucleatum fusiforme; strain 203L25
  zone of inhibition at 5 µg/disc: 25 mm
  zone of inhibition at 10 µg/disc: 28.7 mm
  zone of inhibition at 20 µg/disc: 42 mm
  zone of inhibition at 40 µg/disc: 42 mm
F. nucleatum fusiforme; strain 203L30
  zone of inhibition at 5 µg/disc: 22.3 mm
